Reference: patent US20120107317A1, “USE OF CYTOPLASMIC C-MYC FOR REGULATING IMMUNE RESPONSES” (priority 2010, published 2012)
Where two headings read alike, the source gives them in different places.

Key:
c-Myc [1] = conditions: cited from earlier work
[2] = test system: BCG-induced c-Myc mRNA expression; type: cell-based, human; conditions: then BCG (M.O.I.=1) 3 hours, vs DMSO
c-Myc [3] = assay: Induction of c-Myc expression by HIV-1 Tat in primary human blood macrophages (RT-PCR, Western blot); type: cell-based; conditions: Tat 2, 4 or 6 hours (mRNA); 20 or 100 ng/ml 24 hours (protein)
Method: Briefly, PBMac were treated with or without Tat ([…]) for indicated time points (2, 4 or 6 hours). Total RNA was extracted for analyzing c-Myc mRNA expression levels by quantitative RT-PCR. In addition, PBMac were treated with HIV-1 Tat (20 or 100 ng/ml) for 24 hours. Cellular proteins were extracted for Western blot analyses to determine protein levels of c-Myc and actin. The level of actin was measured as a control of the amount of proteins loaded.

[4] = molecular target: T1, c-Myc (endogenous protein of primary human blood macrophages) (human, UniProt P01106 16-454); assay: co-immunoprecipitation with anti-c-Myc antibody from PBMac lysates, Western blot
T1 construct: Endogenous c-Myc in lysates of primary human blood macrophages (PBMac), with or without BCG treatment; also called cytoplasmic c-Myc
T1 sequence (P01106 16-454 limits assumed): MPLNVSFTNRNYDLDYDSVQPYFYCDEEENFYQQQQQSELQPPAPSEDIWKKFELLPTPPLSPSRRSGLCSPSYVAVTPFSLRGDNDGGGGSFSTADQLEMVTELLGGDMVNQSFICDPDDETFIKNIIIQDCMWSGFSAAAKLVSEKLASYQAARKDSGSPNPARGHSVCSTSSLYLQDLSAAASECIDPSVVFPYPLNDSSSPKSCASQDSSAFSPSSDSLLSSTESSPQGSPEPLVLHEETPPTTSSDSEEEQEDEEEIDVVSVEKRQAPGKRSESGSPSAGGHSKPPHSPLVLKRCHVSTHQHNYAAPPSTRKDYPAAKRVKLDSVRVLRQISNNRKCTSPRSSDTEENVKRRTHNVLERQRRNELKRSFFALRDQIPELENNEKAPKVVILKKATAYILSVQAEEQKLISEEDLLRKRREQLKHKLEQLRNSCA
Method: Total proteins (200 μg) were extracted from PBMac by IP buffer (10 mM Tris [pH7.4], 1 mM EDTA, 1 mM EGTA, 150 mM NaCl, 0.5% NP-40, 1% Triton X-100, inhibitor cocktails of proteases and phosphatases), and were incubated with 1μg primary antibodies against IκBα(Santa Cruz Biotechnology, USA) or c-Myc (Millipore, USA) for 2 hours at 4° C. and then with 20 μl Protein A/G agarose beads (Santa Cruz Biotechnology, USA) for 1 hour at 4° C. The immunoprecipitates were then washed 6 times with IP buffer. Cytoplasmic and nuclear proteins were extracted from PBMac as previously described (Cheung et al., 2005; Lee et al., 2005). Immunoprecipitated, cytoplasmic (50 μg) or nuclear proteins (10 μg) were analyzed by Western Blot as in our previous reports (Cheung et al., 2005; Lee et al., 2005).

[5] = 10 μM inhibitor 1 hour pretreatment

C[n+]1ccc(-c2c3nc(c(-c4cc[n+](C)cc4)c4ccc([nH]4)c(-c4cc[n+](C)cc4)c4ccc([nH]4)c(-c4cc[n+](C)cc4)c4nc2C=C4)C=C3)cc1 [Cationic Porphyrin TMPyP4]
expression and activity of c-Myc (c-Myc [1]): inhibit both the expression and activity of c-Myc

C[S+]([O-])c1ccc(-c2nc(-c3ccncc3)c(-c3ccc(F)cc3)[nH]2)cc1 (stereo not shown) [SB203580]
level of BCG-induced c-Myc mRNA expression [2, 5]: did not affect

COc1cccc(-c2cc(=O)c3ccccc3o2)c1N [PD98059]
level of BCG-induced c-Myc mRNA expression [2, 5]: significantly reduced

O=C1c2ccccc2-c2n[nH]c3cccc1c23 [SP600159]
level of BCG-induced c-Myc mRNA expression [2, 5]: significantly reduced

O=C(/C=C/c1ccc(O)c(O)c1)OCCc1ccccc1 [CAPE]
level of BCG-induced c-Myc mRNA expression ([2]; 15 μg/ml inhibitor 1 hour pretreatment): did not affect

B1: HIV-1 Tat: HIV-1 Tat protein used to treat primary human blood macrophages (protein, UniProt P04608 1-86, looked up)
Protein Tat: MEPVDPRLEPWKHPGSQPKTACTNCYCKKCCFHCQVCFITKALGISYGRKKRRQRRRAHQNSQTHQASLSKQPTSQPRGDPTGPKE
c-Myc expression (mRNA and protein) (c-Myc [3]): induces c-Myc expression

B2: ERK1 (member of ERK1/2, endogenous protein of primary human blood macrophages) (enzyme, UniProt P27361 2-379, looked up)
chain: AAAAAQGGGGGEPRRTEGVGPGVPGEVEMVKGQPFDVGPRYTQLQYIGEGAYGMVSSAYDHVRKTRVAIKKISPFEHQTYCQRTLREIQILLRFRHENVIGIRDILRASTLEAMRDVYIVQDLMETDLYKLLKSQQLSNDHICYFLYQILRGLKYIHSANVLHRDLKPSNLLINTTCDLKICDFGLARIADPEHDHTGFLTEYVATRWYRAPEIMLNSKGYTKSIDIWSVGCILAEMLSNRPIFPGKHYLDQLNHILGILGSPSQEDLNCIINMKARNYLQSLPSKTKVAWAKLFPKSDSKALDLLDRMLTFNPNKRITVEEALAHPYLEQYYDPTDEPVAEEPFTFAMELDDLPKERLKELIFQETARFQPGVLEAP
notes: It is split here into its two members
binding result [4]: no binding
